Patent US20150203924A1, “[…] FOR HERBICIDE RESISTANCE IN PLANTS” (PURDUE RESEARCH FOUNDATION, priority 2013, published 2015)

What was measured:
[1] = tested on: Ambrosia trifida L. (Giant ragweed); experiment: 14C-glyphosate uptake and translocation; assay type: in vivo; settings: two mature leaves treated with 14C-glyphosate
Description: In the study, the treated leaf included two mature leaves treated with ^14C-glyphosate. Mobilized distribution includes untreated mature leaves, meristems and roots.

[2] = tested on: Ambrosia trifida L. (Giant ragweed); experiment: Chlorophyll fluorescence measurements / rapid necrosis of mature leaves after glyphosate treatment; assay type: in vivo; settings: 1x field rate glyphosate
Experimental: To quantify early physiological reactions related to this resistance mechanism, a method was developed using chlorophyll fluorescence measurements to determine photosynthetic activity. […] Treatments at each time point consisted of glyphosate-resistant and glyphosate-sensitive A. trifida untreated and treated leaves.
In an embodiment, to measure fluorescence the maximum quantum efficiency of photosystem II (Fv/Fm) is determined using an Imaging-PAM fluorometer IMAG-MAX/GS with a mounted LED-Array Illumination Unit IMAG-MAX/L and CCD-Camera (Heinz Walz GmbH, 91090 Effeltrich, Germany) along with ImagingWin software. Briefly, dark acclimated plants are exposed to a short saturating light pulse to maximally reduce the QA pool and where fluorescence is increased to maximum values (Fm) and this is followed by a weak non-actinic modulated measuring light to determine the minimal level of fluorescence (F0) (Oxborough, 2004).

[3] = tested on: Ambrosia trifida L. (Giant ragweed); experiment: 31P NMR imaging of glyphosate infiltrated leaves; assay type: in vivo
[4] = tested on: Ambrosia trifida L. (Giant ragweed); experiment: H2O2 accumulation in glyphosate treated leaves by DAB staining; assay type: in vivo
Experimental: In an embodiment, the H2O2 presence is visually detected after 3,3′-diaminobenzidine (DAB) staining using procedures described by Thordal-Christensen et al., ([…]). […] At each harvested time, leaf discs are floated in a solution of DAB-Hydrochloric acid (HCl) (1 mg/ml) (Sigma, St. Louis, Mo.) in a beaker at room temperature and allowed to absorb the solution through the cut ends. After 3 hours of incubation, leaf discs are decolorized by boiling in 90% ethanol for ten minutes to remove chlorophyll, before visual examination. Brown precipitates form at sites of H2O2 accumulation and data collected will be by visual detection of H2O2 accumulation as noted by intensity of brown precipitates on treated leave discs. The hypersensitive reaction (HR) has been used as a visual marker of biotic interactions and induction of pathogen response (PR) genes (S) but this has been also shown in plant responses to abiotic stresses such as excess excitation energy (EEE) (Muhlenbock et al., 2008).

[5] = tested on: Ambrosia trifida L. (Giant ragweed); experiment: Foliar glyphosate treatment of whole plants: fresh weight and visual injury; assay type: in vivo
Description: Significance (<0.05) between populations (within rates) is indicated by letters (a, b). […] Significance (<0.05) between rates (within populations) is indicated by letters (a, b, c).
Foliar application of herbicide solution was applied using a compressed-air bench top track sprayer at a pressure of 249 kPa and a volume of 187 L of spray solution ha-1. […] All plants were at the third node growth stage at the time of treatment.

[6] = tested on: Ambrosia trifida L. (Giant ragweed); experiment: Tissue specific (differential exposure) glyphosate treatment, translocation; settings: uncovered portions sprayed with 0.7 kg ae/ha
EPSPS = EPSPS sensitivity to glyphosate challenge; assay type: biochemical, Ambrosia trifida
[7] = three weeks after treatment, 1x glyphosate field rate

In the case of `O=C(O)CNCP(=O)(O)O` [glyphosate, N-(phosphonomethyl)glycine], the “absorbed glyphosate translocated, glyphosate resistant plants” value [1] is reported as 28%, the “absorbed glyphosate translocated, glyphosate-sensitive plants” value [1] is reported as 54% and the “time to rapid necrosis in mature leaves, glyphosate-resistant plants” value [2] is reported as ≤ 12 h. For the same compound, the “time to rapid cell death, glyphosate-resistant plants” value [3] was ≤ 16 h, the “cell death, glyphosate-sensitive plants” value ([3]; within 16 hours) was “limited cell death” and the “H2O2 production, glyphosate sensitive leaves” value [4] was “no H2O2 production”. The “time to significant H2O2 accumulation, mature leaves of glyphosate-resistant plants” value [4] was ≤ 2 h, the “visual plant injury of resistant plants compared to sensitive plants” value ([5]; 1x, 2x, 4x treatment levels, after twenty-one days) was “decreased visual injury compared to the sensitive plants” and the “visual injury rating (% dead), resistant plants compared to sensitive plants” value ([5]; 3 weeks after treatment, n=63) was “much lower rating of % dead compared to the sensitive plants”. For the same compound, the “plant response, glyphosate-resistant plant” value [5, 7] was “recovered from the glyphosate treatment”, the “plant response, glyphosate-sensitive plant” value [5, 7] was “extremely decline” and the “fresh weight of resistant plants compared to sensitive plants” value ([5]; whole plant tissue 21 days after treatment, 1x=0.7, 2x=1.4, 4x=2.8 kg ae ha-1) was “increased fresh weight at all treatment levels compared to the sensitive plants”. The “translocation of glyphosate away from treated tissues, glyphosate-resistant plants” value [6] was “did not translocate glyphosate”, the “translocation of glyphosate away from treated tissues, glyphosate-sensitive plants” value [6] was “glyphosate-sensitive plants did” and the “EPSPS sensitivity to glyphosate challenge, glyphosate-resistant vs glyphosate-sensitive plants” value (EPSPS) was “no difference”.
